Laboratory results from patent US6756210B2, “Linoleic acid diol and glucuronide conjugate levels as diagnostic markers of disorders of abnormal regulation of cytochrome P450 metabolism of unsaturated fatty acids” (The Regents of the University of California, priority 2001, dated 2004).
Where two headings read alike, the source gives them in different places.

What was measured:
[1] = molecular target: T1, Human sEH (HsEH) (Homo sapiens, UniProt P34913); experiment: Inhibition of recombinant human sEH (HsEH); format: biochemical; conditions: HsEH 0.26 μM
T1 sequence (P34913 1-555): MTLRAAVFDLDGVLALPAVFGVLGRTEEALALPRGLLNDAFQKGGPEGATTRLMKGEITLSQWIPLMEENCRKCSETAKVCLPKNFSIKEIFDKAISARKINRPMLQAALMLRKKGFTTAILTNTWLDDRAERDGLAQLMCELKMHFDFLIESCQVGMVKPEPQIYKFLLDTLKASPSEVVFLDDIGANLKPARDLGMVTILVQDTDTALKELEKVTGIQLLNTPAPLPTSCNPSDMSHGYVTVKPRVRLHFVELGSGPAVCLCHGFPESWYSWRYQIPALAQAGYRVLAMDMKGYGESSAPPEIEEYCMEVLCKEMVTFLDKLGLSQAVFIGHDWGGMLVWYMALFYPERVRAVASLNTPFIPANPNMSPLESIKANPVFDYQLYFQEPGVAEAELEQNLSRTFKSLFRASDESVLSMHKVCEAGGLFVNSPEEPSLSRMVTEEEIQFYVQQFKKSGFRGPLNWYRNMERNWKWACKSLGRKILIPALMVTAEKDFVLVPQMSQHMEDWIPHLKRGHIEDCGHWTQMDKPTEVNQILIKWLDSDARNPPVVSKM

[2] = molecular target: T2, recombinant mouse sEH (MsEH) (Mus musculus, UniProt P34914); experiment: Inhibition of recombinant mouse sEH (MsEH); format: biochemical
T2 sequence (P34914 1-554): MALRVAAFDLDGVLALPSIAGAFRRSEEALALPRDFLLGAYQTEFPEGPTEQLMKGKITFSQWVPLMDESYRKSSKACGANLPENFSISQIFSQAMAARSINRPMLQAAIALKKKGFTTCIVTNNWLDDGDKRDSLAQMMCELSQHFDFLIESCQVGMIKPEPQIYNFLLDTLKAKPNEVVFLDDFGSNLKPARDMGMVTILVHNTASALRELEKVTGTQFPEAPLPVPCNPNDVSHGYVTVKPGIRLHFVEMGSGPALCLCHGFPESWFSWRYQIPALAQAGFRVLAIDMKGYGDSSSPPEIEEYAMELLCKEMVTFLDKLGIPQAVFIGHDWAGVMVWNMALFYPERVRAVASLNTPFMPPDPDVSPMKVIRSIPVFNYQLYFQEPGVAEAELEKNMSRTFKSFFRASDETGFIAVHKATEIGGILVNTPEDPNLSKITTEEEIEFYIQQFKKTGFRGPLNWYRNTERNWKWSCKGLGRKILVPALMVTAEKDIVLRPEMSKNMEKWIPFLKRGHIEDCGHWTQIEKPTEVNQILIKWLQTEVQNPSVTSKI

[3] = Table 1, MsEH 0.13 μM, read-out: Mouse sEH IC50
[4] = Table 2, MsEH 0.13 μM, read-out: Mouse sEH IC50

Row | IC50 ([1]; Table 1) | IC50 [2, 3] | SMILES | other results
1 | 0.14 ± 0.01 µM | 0.08 ± 0.01 µM | O=C(Nc1c2ccccc2nc2ccccc12)NC1CCCCC1 [compound 559] | 
2 | 1 ± 0.2 µM | 0.05 ± 0.01 µM | COc1ccc(CCNC(=O)NC2CCCCC2)cc1OC [compound 384] | 
3 | 17.8 ± 0.7 µM | 0.7 ± 0.1 µM | O=C(NCCCN1CCOCC1)NC1CCCCC1 [compound 377] | 
4 | 0.1 ± 0.01 µM | 0.09 ± 0.01 µM | CCCCCCNC(=O)Nc1ccc(C(C)C)cc1 [compound 287] | 
5 | 3.7 ± 0.3 µM | 0.05 ± 0.01 µM | C[C@@H](NC(=O)NC1CCCCC1)c1ccccc1 [compound 545] | 
6 | 0.2 ± 0.02 µM | 0.07 ± 0.02 µM | O=C(NCCc1ccc(Cl)cc1)NC1CCCCC1 [compound 361] | 
7 | 1.39 ± 0.02 µM | 0.76 ± 0.02 µM | O=C(Nc1ccccc1)NC1CCCCC1 [compound 21] | 
8 | 0.07 ± 0.02 µM | 0.11 ± 0.03 µM | CCCCCCNC(=O)NC1CCCCC1 [compound 286] | 
9 |  | 0.09 ± 0.01 µM | CC(C)c1ccc(NC(=O)NC2CCCCC2)cc1 [compound 66] | 
10 |  | 0.27 ± 0.01 µM | CCCCCCCCCCCCNC(=O)OC1CCCCC1 [compound 514] | 
11 |  | 0.07 ± 0.01 µM | O=C(Nc1cccc(Cl)c1)NC1CCCCC1 [compound 44] | 
12 |  | 0.05 ± 0.01 µM | O=C(NC1CCCCCCC1)NC1CCCCC1 [compound 58] | 
13 | 0.24 ± 0.01 µM |  | CCCCCCCCNC(=O)NCCCCCC [compound 175] | 

The next lines start with the molecule.

Row | SMILES | IC50 ([1]; Table 1) | IC50 [2, 3] | other results
14 | CCCCCCCCCCNC(=O)Nc1ccccc1 [compound 148] | 0.61 ± 0.02 µM | 0.21 ± 0.01 µM | 
15 | CCCNC(=O)Nc1cccc2ccccc12 [compound 253] | 0.28 ± 0.01 µM | 0.1 ± 0.02 µM | 
16 | O=C(NCCCc1ccccc1)NC1CCCCC1 [compound 104] | 0.29 ± 0.01 µM | 0.04 ± 0.01 µM | 
17 | CCCNC(=O)NC1CCCCCCCCCCC1 [compound 189] | 1 ± 0.2 µM | 0.8 ± 0.03 µM | 
18 | ON=C(c1ccccc1)C1OC1c1ccccc1 (racemic) [R=C6H5, R′=C6H5, X—Y=C═NOH, ±] |  |  | IC50 ([1]; Table 2): 0.29 ± 0.01 µM; IC50 [2, 4]: 3.5 ± 0.5 µM
19 | O=C(c1ccccc1)C1OC1c1ccc(-c2ccccc2)cc1 (racemic) [R=4-C6H5—C6H4, R′=C6H5, X—Y=C═O, ±] |  |  | IC50 ([1]; Table 2): 0.2 ± 0.01 µM; IC50 [2, 4]: 0.14 ± 0.01 µM
20 | O=C(NCCC1=CCCCC1)NCc1ccccc1 [compound 471] | 2.2 ± 0.1 µM | 0.25 ± 0.03 µM | 
21 | O=C(NC1CCCCCCCCCCC1)NC1CCCCC1 [compound 119] | 0.1 ± 0.01 µM | 0.05 ± 0.01 µM | 
22 | CCCCCCCCNC(=O)Nc1cccc(Cl)c1 [compound 170] | 0.18 ± 0.01 µM | 0.12 ± 0.01 µM | 
23 | CCCCCCCCNC(=O)Nc1ccccc1 [compound 151] | 0.58 ± 0.01 µM |  | IC50 [2]: 2.29 ± 0.03 µM
24 | O=C(NC1CCCCC1)Oc1ccc2ccccc2c1 [compound 110] | 0.35 ± 0.01 µM |  | IC50 [2]: 0.21 ± 0.01 µM
25 | Cc1ccc(C(O)C2OC2c2ccc(-c3ccccc3)cc2)cc1 (racemic) |  |  | IC50 ([1]; Table 2): 0.15 ± 0.02 µM; IC50 [2, 4]: 0.09 ± 0.01 µM
26 | CN(C)c1ccc(NC(=O)NC2CCCCC2)cc1 [compound 362] | 1.5 ± 0.1 µM | 0.05 ± 0.01 µM | 
27 | CCCCCCCCCCCCNC(=O)NC1CCCCC1 [compound 297] | 0.1 ± 0.01 µM | 0.05 ± 0.01 µM | 
28 | O=C(NC1CCCCC1)OCc1cccc2ccccc12 [compound 262] | 0.1 ± 0.02 µM | 0.05 ± 0.01 µM | 
29 | OC[C@H]1O[C@@H]1c1ccccc1 [R=C6H5, R′=H, X—Y=CH—OH, R, R] |  |  | IC50 [2, 4]: 1100 ± 23 µM
30 | C(=NC1CCCCC1)=NC1CCCCC1 | 0.47 ± 0.01 µM |  | IC50 [2]: 0.25 ± 0.02 µM
31 | O=[N+]([O-])c1ccc([C@H]2O[C@@H]2CO)cc1 [R=4-NO2—C6H4, R′=H, X—Y=CH—OH, R, R] |  |  | IC50 [2, 4]: 1200 ± 25 µM
32 | OC[C@@H]1O[C@H]1c1ccccc1 [R=C6H5, R′=H, X—Y=CH—OH, S, S] |  |  | IC50 [2, 4]: 2400 ± 46 µM
33 | O=[N+]([O-])c1ccc([C@@H]2O[C@H]2CO)cc1 [R=4-NO2—C6H4, R′=H, X—Y=CH—OH, S, S] |  |  | IC50 [2, 4]: 1.6 ± 0.6 µM
34 | O=C(Nc1ccc(Cl)c(Cl)c1)Nc1ccc(Cl)c(Cl)c1 [compound 299] | 0.26 µM |  | 
35 | O=[N+]([O-])c1ccc(C2OC2CO)cc1 (racemic) [R=4-NO2—C6H4, R′=H, X—Y=CH—OH, ±] |  |  | IC50 [2, 4]: 5 ± 1 µM
36 | CCCCCCCCCCCCCC(=O)NC1CCCCC1 [compound 515] |  | 0.19 ± 0.05 µM | 
